From US12624050B2, “Three fused ring derivative-containing salt or crystal form and pharmaceutical composition thereof” (Shanghai Hansoh Biomedical Co., Ltd., priority 2019, dated 2026)

Experiments:
[1] = target: T1, PI3Kγ (Homo sapiens, UniProt P48736); assay: ADP-Glo Lipid Kinase Assay, PI3Kγ kinase activity; assay type: biochemical; conditions: ratio of IC50 values
T1 construct: purchased Thermofisher #PV4786
Procedure: (§1) In this experiment, ADP-Glo Lipid Kinase Assay (Promega #V9102) from Promega was used. The lipid kinases PI3Kα/β/γ/δ catalyzed the ATP-to-ADP reaction in the presence of the substrate PIP2:3PS and ATP. The lipid kinase activity was characterized by measuring the ADP content in the reaction, and the half inhibition concentrations IC50 of the compounds on PI3Kα/β/γ/δ kinase activity were obtained.
(§2) Kinase reactions were carried out in white 384-well plates (Perkin Elmer #6007299). 2 μL of the compound of various concentrations diluted with ddH2O containing 1% DMSO was added to each well, and 2 μL of ddH2O containing 1% DMSO was added to positive control wells. Then 2 μL of 0.1 to 2 nM PI3K kinase solution diluted with 5× kinase buffer (HEPES 250 mM, MgCl2 15 mM, NaCl 250 mM, BSA 0.05%) was added to each well, and 2 μL of 5× kinase buffer was added to the negative control wells. 4 μL of 50 μM substrate PIP2:3PS (Promega #V1701) prepared with 10× Dilution buffer and ddH2O was added to all wells. Finally, 2 μL of 50 to 100 μM ATP solution diluted with water was added to start the reaction. After the reaction was carried out at room temperature for 90 to 120 minutes, 10 µL of ADP-Glo Reagent (containing 10 mM MgCl2) was added to each well, and the reaction was carried out at room temperature for 60 minutes to eliminate excess adenosine triphosphate (ATP) in the reaction. Then 20 μL of Kinase Detection Reagent was added to each well. After the reaction was carried out for 20 minutes at room temperature in the dark, the chemiluminescence was measured by BioTek Synergy H1 microplate reader.
(§3) The percentage inhibition data of the compound-treated well was calculated from positive control wells (DMSO control wells) and negative control wells (no kinase added) on the plate {% inhibition=100−[(test compound value−negative control value)]/(positive control value-negative control value)×100}. IC50 values were calculated using GraphPad prism and using a four-parameter nonlinear logistic formula to fit the data of different concentrations and corresponding percent inhibition.

[2] = target: T2, PI3Kδ (Homo sapiens, UniProt O00329); assay: ADP-Glo Lipid Kinase Assay, PI3Kδ kinase activity; assay type: biochemical; conditions: ratio of IC50 values
T2 construct: purchased Carna #11-103
Procedure: as §1, §2, §3

[3] = target: T3, PI3Kβ (Homo sapiens, UniProt P42338); assay: ADP-Glo Lipid Kinase Assay, PI3Kβ kinase activity; assay type: biochemical; conditions: ratio of IC50 values
T3 construct: purchased Carna #11-102
Procedure: as §1, §2, §3

[4] = system: HGC-27 (E542K); assay: Proliferation inhibition of PI3Kα mutant cancer cells, Cell Titer-Glo, HGC-27; assay type: cell-based; conditions: Homo sapiens
Procedure: (§4) The proliferation inhibitory effect of the compounds of the examples on the PI3Kα mutant cancer cell lines (HCC1954, HGC-27 and MKN1) was detected by Cell Titer-Glo method. Cell lines were cultured in RPMI 1640 medium (Gibco #22400089) containing 10% FBS (Gibco #10091148) and 1% P/S (Hyclone #SV30010) under the condition of 37° C. and 5% CO2. The cells were collected before the experiment, and the cell density was adjusted after cell counting. The cells were seeded in a white 96-well plate (Corning #3610) at a density of 1000 to 10000 cells/well, and incubated in an incubator at 37° C. and 5% CO2 overnight. The prepared compound solutions of different concentrations and the corresponding solvent controls were added to the plate. The plate was again incubated in an incubator at 37° C. and 5% CO2 for 48 to 96 hours. Then the cell plate and its contents were equilibrated to room temperature. 20 to 100 μL of Cell Titer-Glo solution (Promega #G7573) was added to each well, and the plate was shaken and mixed well, then incubated at room temperature for 5 to 30 minutes in the dark. The chemiluminescence was measured by a SynergyH1 microplate reader from BioTek.
(§5) The percentage inhibition data of the compound-treated well was calculated from solvent control wells on the plate {% inhibition=100−([…])×100}. IC50 values were calculated using GraphPad prism and using a four-parameter nonlinear logistic formula to fit the data of different concentrations and corresponding percent inhibition.

[5] = system: HCC1954 cell; assay: In vivo efficacy test, HCC1954 tumor-bearing nude mice; parameters: species or system BALB/c nude mice; conditions: oral, 10 mg/kg, once/day, 21 days (Example 22: 19 days)
Procedure: • a. A strain of HCC1954 cell was taken from the cell bank, recovered with RPMI-1640 medium (RPMI-1640+10% FBS+1% SP), plated in a cell culture flask (cell type, date, name of the experimenter and the like were labeled on the wall of the flask) and cultured in a CO2 incubator (the temperature was 37° C. and the CO2 concentration was 5% in the incubator). • b. Cells were passaged when they covered 80 to 90% of the bottom of the culture flask. After passage, the cells continued to be cultured in the CO2 incubator. This process was repeated until the number of cells was sufficient for the in vivo efficacy test. • c. The cultured cells were collected and counted with an automatic cell counter, and then resuspended with PBS and Matrigel Matrix according to the counting results to prepare a cell suspension (density 5×10^7/mL), which was placed in an ice box for use. 4.3.2 Cell Inoculation • a. The nude mice were labeled with disposable universal ear tags for rats and mice before inoculation. • b. During the inoculation, the cell suspension was mixed well. 0.1 to 1 mL of the cell suspension was drawn with a 1 mL syringe, air bubbles were removed, and then the syringe was placed on an ice pack for use. • c. The nude mouse was bound with the left hand. The position on the right side of the back close to the right shoulder of the nude mouse (inoculation site) was disinfected with 75% alcohol. Inoculation started after 30 seconds. • d. The test nude mice were successively inoculated (each mouse was inoculated with 0.1 mL of cell suspension). 4.3.3 Tumor Measurement, Grouping and Administration of Tumor-Bearing Mice • a. According to the tumor growth, the tumors was measured on 14 to 18 days after inoculation, and the tumor size was calculated. Calculation of tumor volume: tumor volume (mm^3)=length (mm)×width (mm)×width (mm)/2 • b. The tumor-bearing mice were grouped according to their body weight and tumor size by random grouping. • c. The test compounds were administered according to the grouping results (administration route: oral administration; administration dose: 10 mg/kg; administration volume: 10 mL/kg; administration frequency: once/day; administration cycle: 21 days; vehicle: 0.5% CMC/1% Tween 80). • d. Tumors were measured and weighed twice a week after the administration of test compounds began. • e. Animals were euthanized at the end of the experiment. • f. Data were processed by using softwares such as Excel. […] When the tumor regress, TGI (%)=[1−(average tumor volume of the treatment group at the end of the administration−average tumor volume of the treatment group at the beginning of the administration)/average tumor volume of the treatment group at the beginning of the administration]×100%.

[6] = system: MKN1 (E545K); assay: Proliferation inhibition of PI3Kα mutant cancer cells, Cell Titer-Glo, MKN1; assay type: cell-based; conditions: Homo sapiens, MKN-1
Procedure: as §4, §5

[7] = system: HCC1954 (H1047R); assay: Proliferation inhibition of PI3Kα mutant cancer cells, Cell Titer-Glo, HCC1954; assay type: cell-based; conditions: Homo sapiens
Procedure: as §4, §5

[8] = Hygroscopicity experiment; assay type: physicochemical; conditions: RH 80%
Procedure: Crystal form A of mesylate salt, crystal form D of sulfate salt and crystal form A of ethanesulfonate salt of (S)-2-((2-((R)-4-(difluoromethyl)-2-oxothiazolidin-3-yl)-5,6-dihydrobenzo[f]imidazo[1,2-d][1,4]oxazepin-9-yl)amino)propionamide were placed in saturated water vapor with different relative humidity, so that the compound and water vapor reached a dynamic equilibrium, and the percentage of hygroscopic weight gain of the compound after the equilibrium was calculated.

[9] = PK studies in animals of salt crystal forms, intragastric 30 mg/kg; assay type: in vivo; conditions: 0.5% HPMC K4M suspension
Procedure: 7.2.1 Crystal form A of mesylate salt, crystal form D of sulfate salt and crystal form A of ethanesulfonate salt of (S)-2-((2-((R)-4-(difluoromethyl)-2-oxothiazolidin-3-yl)-5,6-dihydrobenzo[f]imidazo[1,2-d][1,4]oxazepin-9-yl)amino)propionamide were evenly suspended in an aqueous solution containing 0.5% HPMC (hydroxypropyl methylcellulose) K4M, and then intragastrically administered to rats in duplicate at a dose of 30 mg/kg. The amount of the compound was all converted into the amount of the same compound (S)-2-((2-((R)-4-(difluoromethyl)-2-oxothiazolidin-3-yl)-5,6-dihydrobenzo[f]imidazo[1,2-d][1,4]oxazepin-9-yl)amino)propionamide.

[10] = system: SD rats; assay: Toxicity test of a 7-day repeatedly intragastric administration in SD rats; assay type: in vivo; conditions: SD rats, intragastric once/day, 7 days
Description: • Test compound 1: GDC-0077 • Test compound 2: the compounds of Example 22 and Example 62 3.2.2 Vehicle • Name: 20% aqueousSBE-β-CD (Captisol) solution 3.2.3 Animal Information • Species & strains: Sprague-Dawley (SD) rat • Animal grade: SPF grade • Number and sex of animals: 160 rats, half male and half female. 3.2.4 Instruments • The ADVIA®2120 series Hematology System with Autoslide was used for blood cell counting; • The SYSMEX CA-500 Coagulation Analyzer was used for the detection of coagulation function indicators; • The TBA-120FR Automated Biochemical Analyzer was used for the detection of blood biochemical indicators; • The Easylyte Electrolyte Analyzer was used for the detection of electrolytes; • The liquid mass spectrometry detector model API4000; • The electron spray ionization (ESI) positive ion mode and column type Agilent ZORBAX XDB-C18 (3.5 μm, 2.1×50 mm) were used for bioanalytical detection of plasma samples. 3.3 Experimental Method • 1) In the experiment, 160 rats (80 rats/sex) were divided into 20 groups according to their sex and body weight, wherein 100 rats were used for toxicology study (groups 1 to 10, 5 rats/sex/group) and 60 rats were used for toxicokinetic study (groups 11 to 20, 3 rats/sex/group); • 2) As the vehicle control group, the animals in groups 1 and 11 were intragastrically administered 20% aqueous SBE-β-CD (Captisol) solution; • 3) The animals in groups 2 and 12, groups 3 and 13, and groups 4 and 14 were intragastrically administered 10, 30 and 60 mg/kg of GDC-0077, respectively; • 4) The animals in groups 5 and 15, groups 6 and 16, and groups 7 and 17 were intragastrically administered 10, 30 and 60 mg/kg of the compound of Example 22, respectively; • 5) The animals in groups 8 and 18, groups 9 and 19, groups 10 and 20 were intragastrically administered 10, 30 and 60 mg/kg of the compound of Example 62, respectively; • 5) The animals were administered once a day for 7 consecutive days (the animals in groups 7, 17, 10 and 20 were administered for 6 consecutive days). • 6) The administration volume was 10 mL/kg. • 7) During the experiment, items such as clinical observation, body weight, food intake, clinicopathological indicators (blood cell count, coagulation function, blood biochemistry), toxicokinetics and the like were studied. • 8) All animals were euthanized on Day 8 (the animals in groups 7, 10, 17 and 20 were euthanized after administration on Day 6). • 9) During the experiment, gross anatomical observation was performed on the animals in groups 1 to 10, animals in groups 17 and 20, and dead animals (including animals in toxicological study). Histopathological examination was performed on abnormal tissues, gastrointestinal tissues (such as colon, cecum) and immune tissues (such as thymus). […]

[11] = rat, in vivo, po, rats, 30 mg/kg (as free compound)

T2 sequence (O00329 whole entry): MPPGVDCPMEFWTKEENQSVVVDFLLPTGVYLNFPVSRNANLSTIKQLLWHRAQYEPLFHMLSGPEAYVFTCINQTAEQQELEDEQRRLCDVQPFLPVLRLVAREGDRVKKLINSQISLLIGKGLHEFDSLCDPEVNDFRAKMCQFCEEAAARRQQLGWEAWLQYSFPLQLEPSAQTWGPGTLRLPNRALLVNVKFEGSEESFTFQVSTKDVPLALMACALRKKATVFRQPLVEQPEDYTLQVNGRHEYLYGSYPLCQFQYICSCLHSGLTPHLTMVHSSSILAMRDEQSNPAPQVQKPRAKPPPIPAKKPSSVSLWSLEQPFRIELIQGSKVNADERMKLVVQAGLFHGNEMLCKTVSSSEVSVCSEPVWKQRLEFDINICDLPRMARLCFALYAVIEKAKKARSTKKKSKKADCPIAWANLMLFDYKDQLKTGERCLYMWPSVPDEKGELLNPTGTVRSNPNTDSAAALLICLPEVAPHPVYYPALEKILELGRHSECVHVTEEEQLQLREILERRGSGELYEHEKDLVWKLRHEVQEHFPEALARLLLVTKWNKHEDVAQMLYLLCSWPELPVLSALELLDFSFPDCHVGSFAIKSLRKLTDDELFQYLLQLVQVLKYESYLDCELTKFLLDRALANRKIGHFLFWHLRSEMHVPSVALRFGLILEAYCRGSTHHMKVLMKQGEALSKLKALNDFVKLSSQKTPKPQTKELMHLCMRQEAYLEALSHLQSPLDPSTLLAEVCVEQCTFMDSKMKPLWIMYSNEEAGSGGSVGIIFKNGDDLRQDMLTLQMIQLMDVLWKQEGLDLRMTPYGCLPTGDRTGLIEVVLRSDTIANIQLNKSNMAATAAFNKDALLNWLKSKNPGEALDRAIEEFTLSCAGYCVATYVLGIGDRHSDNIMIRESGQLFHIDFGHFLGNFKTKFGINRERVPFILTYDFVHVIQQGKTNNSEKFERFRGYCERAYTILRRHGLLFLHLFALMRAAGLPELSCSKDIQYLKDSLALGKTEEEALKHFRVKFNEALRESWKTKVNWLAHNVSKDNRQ
T2 sequence (P27986 whole entry partner): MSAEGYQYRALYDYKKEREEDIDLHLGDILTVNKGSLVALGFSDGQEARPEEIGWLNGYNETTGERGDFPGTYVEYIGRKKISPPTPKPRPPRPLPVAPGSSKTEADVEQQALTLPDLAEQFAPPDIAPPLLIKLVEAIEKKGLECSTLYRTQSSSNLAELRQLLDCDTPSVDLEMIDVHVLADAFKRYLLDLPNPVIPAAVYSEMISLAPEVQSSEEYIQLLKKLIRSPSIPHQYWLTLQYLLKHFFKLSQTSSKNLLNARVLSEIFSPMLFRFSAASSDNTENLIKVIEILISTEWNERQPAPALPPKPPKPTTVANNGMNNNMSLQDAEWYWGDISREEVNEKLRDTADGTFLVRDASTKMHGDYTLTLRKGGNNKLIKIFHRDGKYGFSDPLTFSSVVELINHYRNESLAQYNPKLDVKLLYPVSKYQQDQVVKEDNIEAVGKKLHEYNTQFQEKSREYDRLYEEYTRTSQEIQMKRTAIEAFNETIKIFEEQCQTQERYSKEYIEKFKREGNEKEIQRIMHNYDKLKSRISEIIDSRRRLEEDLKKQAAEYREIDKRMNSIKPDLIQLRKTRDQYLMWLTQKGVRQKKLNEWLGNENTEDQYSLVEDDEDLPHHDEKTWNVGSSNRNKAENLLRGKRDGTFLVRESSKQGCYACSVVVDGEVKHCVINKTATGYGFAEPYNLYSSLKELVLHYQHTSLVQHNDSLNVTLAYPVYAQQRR
T3 sequence (P42338 whole entry): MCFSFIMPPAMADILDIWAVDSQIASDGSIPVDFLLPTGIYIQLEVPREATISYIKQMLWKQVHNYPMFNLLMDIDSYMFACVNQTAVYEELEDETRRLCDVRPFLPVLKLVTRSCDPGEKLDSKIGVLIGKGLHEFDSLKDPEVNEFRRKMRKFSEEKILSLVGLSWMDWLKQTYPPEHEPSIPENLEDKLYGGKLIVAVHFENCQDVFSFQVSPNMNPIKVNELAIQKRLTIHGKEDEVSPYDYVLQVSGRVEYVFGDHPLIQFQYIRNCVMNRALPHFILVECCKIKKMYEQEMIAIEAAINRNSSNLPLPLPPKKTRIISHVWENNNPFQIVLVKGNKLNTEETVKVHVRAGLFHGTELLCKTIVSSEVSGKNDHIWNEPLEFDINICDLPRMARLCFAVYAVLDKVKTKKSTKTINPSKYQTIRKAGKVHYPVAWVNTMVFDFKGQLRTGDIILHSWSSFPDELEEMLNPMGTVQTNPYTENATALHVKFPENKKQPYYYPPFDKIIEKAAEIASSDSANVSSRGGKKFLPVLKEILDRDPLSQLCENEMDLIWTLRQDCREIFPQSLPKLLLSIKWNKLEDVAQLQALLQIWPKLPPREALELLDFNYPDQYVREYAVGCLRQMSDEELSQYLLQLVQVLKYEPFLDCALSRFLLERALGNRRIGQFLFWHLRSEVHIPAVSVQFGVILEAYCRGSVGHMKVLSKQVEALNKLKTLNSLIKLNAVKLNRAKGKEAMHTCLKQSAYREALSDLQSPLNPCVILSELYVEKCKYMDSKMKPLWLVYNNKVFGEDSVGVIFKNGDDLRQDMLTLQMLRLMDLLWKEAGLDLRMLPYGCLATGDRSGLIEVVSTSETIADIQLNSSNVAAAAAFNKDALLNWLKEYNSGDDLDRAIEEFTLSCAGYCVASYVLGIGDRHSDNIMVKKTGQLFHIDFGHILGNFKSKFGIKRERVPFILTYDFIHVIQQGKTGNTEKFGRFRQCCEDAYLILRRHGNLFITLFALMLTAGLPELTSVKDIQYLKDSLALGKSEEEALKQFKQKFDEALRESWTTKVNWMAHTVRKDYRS
T3 sequence (P27986 whole entry partner): as the sequence (P27986 whole entry partner) above
T1 sequence (P48736 whole entry): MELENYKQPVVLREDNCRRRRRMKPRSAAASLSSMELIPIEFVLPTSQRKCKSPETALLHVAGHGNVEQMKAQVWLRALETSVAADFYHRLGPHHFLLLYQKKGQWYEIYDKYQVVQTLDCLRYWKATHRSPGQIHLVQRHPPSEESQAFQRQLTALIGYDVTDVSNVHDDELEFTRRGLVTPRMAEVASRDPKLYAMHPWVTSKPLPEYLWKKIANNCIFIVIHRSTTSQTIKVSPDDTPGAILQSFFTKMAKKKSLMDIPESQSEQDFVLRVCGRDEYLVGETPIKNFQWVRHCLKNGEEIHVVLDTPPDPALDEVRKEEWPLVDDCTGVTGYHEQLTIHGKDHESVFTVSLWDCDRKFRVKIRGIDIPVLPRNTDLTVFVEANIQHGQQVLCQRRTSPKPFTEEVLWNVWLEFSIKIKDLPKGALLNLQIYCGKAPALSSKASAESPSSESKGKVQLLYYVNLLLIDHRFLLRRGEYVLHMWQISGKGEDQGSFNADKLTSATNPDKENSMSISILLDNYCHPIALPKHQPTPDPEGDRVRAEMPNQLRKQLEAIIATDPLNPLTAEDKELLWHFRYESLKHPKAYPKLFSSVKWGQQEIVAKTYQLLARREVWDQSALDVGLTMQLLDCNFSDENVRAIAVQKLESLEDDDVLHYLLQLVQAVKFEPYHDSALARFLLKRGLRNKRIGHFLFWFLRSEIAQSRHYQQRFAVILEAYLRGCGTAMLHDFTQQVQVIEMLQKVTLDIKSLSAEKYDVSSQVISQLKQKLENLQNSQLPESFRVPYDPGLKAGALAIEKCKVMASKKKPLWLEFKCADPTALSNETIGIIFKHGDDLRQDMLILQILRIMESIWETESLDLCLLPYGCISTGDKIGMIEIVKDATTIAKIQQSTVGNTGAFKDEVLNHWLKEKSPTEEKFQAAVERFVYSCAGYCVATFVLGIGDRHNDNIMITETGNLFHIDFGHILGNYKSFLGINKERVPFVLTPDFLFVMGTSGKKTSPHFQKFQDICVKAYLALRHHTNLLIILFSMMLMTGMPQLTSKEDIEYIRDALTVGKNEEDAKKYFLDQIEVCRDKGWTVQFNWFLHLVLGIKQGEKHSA

Compound | Selectivity of PI3Kα vs PI3Kγ [1] | Selectivity of PI3Kα vs PI3Kδ [2] | Selectivity of PI3Kα vs PI3Kβ [3] | IC50 [4] [nM] | IC50 [6] [nM] | IC50 [7] [nM] | Tumor growth inhibition rate [5] [%] | hygroscopic weight gain [8] [%] | hygroscopicity (in words) [8] | exposure in rats (in words) ([9]; 30 mg/kg) | AUC(0-inf) [9, 11] [ng·h/mL] | AUC(0-t) [9, 11] [ng·h/mL] | Cmax [9, 11] [ng/mL] | Tmax [9, 11] [h] | half-life [9, 11] [h] | MRT inf ([9]; rat, in vivo, po, rats, 30 mg/kg (as free compound), read-out: MRT0-∞) [h] | lethal dose [10] [mg/kg]
C[C@H](Nc1ccc2c(c1)OCCn1cc(N3C(=O)SC[C@H]3C(F)F)nc1-2)C(N)=O.O=S(=O)(O)O [crystal form D of sulfate salt, (S)-2-((2-((R)-4-(difluoromethyl)-2-oxothiazolidin-3-yl)-5,6-dihydrobenzo[f]imidazo[1,2-d][1,4]oxazepin-9-yl)amino)propionamide] | – | – | – | – | – | – | – | 1.256 | had hygroscopicity | higher exposures | 9600 | 9420 | 1360 | 1 | 3.3 | 5.77 | –
C[C@H](Nc1ccc2c(c1)OCCn1cc(N3C(=O)OC[C@H]3C(F)F)nc1-2)C(N)=O [GDC-0077, reference compound] | – | – | – | – | – | – | – | – | – | – | – | – | – | – | – | – | 60
C[C@H](Nc1ccc2c(c1F)OCCn1cc(N3C(=O)SC[C@H]3C(F)F)nc1-2)C(N)=O [Example 50, (S)-2-((2-((R)-4-(difluoromethyl)-2-oxothiazolidin-3-yl)-8-fluoro-5,6-dihydrobenzo[f]imidazo[1,2-d][1,4]oxazepin-9-yl)amino)propionamide] | 103 | 81 | 197 | 233 | 118 | 98 | 96 | – | – | – | – | – | – | – | – | – | –

Second part, led by results:

Selectivity of PI3Kα vs PI3Kγ [1] | Selectivity of PI3Kα vs PI3Kδ [2] | Selectivity of PI3Kα vs PI3Kβ [3] | IC50 [4] [nM] | IC50 [6] [nM] | IC50 [7] [nM] | Compound | Tumor growth inhibition rate [5] [%] | hygroscopic weight gain [8] [%] | hygroscopicity (in words) [8] | exposure in rats (in words) ([9]; 30 mg/kg) | AUC(0-inf) [9, 11] [ng·h/mL] | AUC(0-t) [9, 11] [ng·h/mL] | Cmax [9, 11] [ng/mL] | Tmax [9, 11] [h] | half-life [9, 11] [h] | MRT inf ([9]; rat, in vivo, po, rats, 30 mg/kg (as free compound), read-out: MRT0-∞) [h] | lethal dose [10] [mg/kg]
376 | 139 | 754 | 137 | 109 | 57 | COC[C@H](Nc1ccc2c(c1)OCCn1cc(N3C(=O)SC[C@H]3C(F)F)nc1-2)C(N)=O [Example 52, (S)-2-((2-((R)-4-(difluoromethyl)-2-oxothiazolidin-3-yl)-5,6-dihydrobenzo[f]imidazo[1,2-d][1,4]oxazepin-9-yl)amino)-3-methoxypropionamide] | 98 | – | – | – | – | – | – | – | – | – | –
401 | 280 | 1499 | 93 | 84 | 79 | C[C@H](Nc1ccc2c(c1)OCCn1cc(N3C(=O)O[C@H](C)[C@H]3C(F)F)nc1-2)C(N)=O [Example 25, (S)-2-((2-((4S,5R)-4-(difluoromethyl)-5-methyl-2-oxooxazolidin-3-yl)-5,6-dihydrobenzo[f]imidazo[1,2-d][1,4]oxazepin-9-yl)amino)propionamide] | 120 | – | – | – | – | – | – | – | – | – | –
